The values below are quoted from earlier work in US20120015039A1, “SUSTAINED RELEASE OF NUTRIENTS IN VIVO” (New World Pharmaceuticals, LLC, priority 2007, published 2012).

As a reminder, the LD50 is the dose expected to kill half of the subjects tested.

One data set concerns mice. Conditions: mouse, in vivo, iv.

Structures are written as SMILES.

Consider `COC(=O)C1=CO[C@@H](O)[C@@H]2C(CO)=CC[C@H]12` [Genipin], for which the LD50 with mice was 382 mg/kg.
As to `[O]=[V]([O-])([O-])[O-]` [vanadate], the “concentration at which formation of EP is inhibited” value in the data set with Na/K ATPase is recorded as “less than 1 micromolar”.
